Assay results published in patent US6380192B1, “Triazine compounds and method of use therefor” (Alteon, Inc., priority 1996, dated 2002).
Where a name gives a salt, the structure may show the parent alone.

Columns and labels:
[1] = test system: N-acetyl glycyl-lysine methyl ester; experiment: Inhibition of cross-linking of N-acetyl glycyl-lysine methyl ester in the presence of ribose (fluorescence); type: biochemical; details: 0.5 M sodium phosphate buffer pH 7.4, 37° C., 16-24 hours; read-out: IC50 inhibition of cross-linking of N-acetylglycyllysine methyl ester with ribose
Excerpt: The following method was used to evaluate the ability of the compounds of the present invention to inhibit the cross-linking of N-acetyl glycyl-lysine methyl ester in the presence of ribose.
N-acetylglycyllysine methyl ester (DP in formula below)
Ribose (R in formula below)
Test compounds (C in formula below)
0.5 M sodium phosphate buffer pH 7.4
N-acetylglycyllysine methyl ester in 0.5M sodium phosphate buffer, pH 7.4
Test compounds dissolved in the above buffer and the pH is adjusted to 7.4, if necessary
Reaction mixtures are prepared as follows:
and incubated at 37° C. for 16-24 hours. At the end of the incubation period reaction mixture is diluted with 3 ml distilled water and the fluorescence is read using an excitation wavelength of 350 nm and emission wavelength of […]. The inhibition of the cross-linking is calculated from the decrease in the fluorescence in the presence of the test compounds according to the formula:
Inhibition (%)=100×[DPRC fluorescence−RC fluorescence]/DPR fluorescence
The Inhibition by various test compounds (IC50) is as follows: […]

[2] = test system: streptozotocin-diabetic rat; details: cited from earlier work
diabetic rats = details: cited from earlier work
kidney = details: in vivo; cited from earlier work
red blood cells = details: in vivo; cited from earlier work

2-methyl-[6′-(3′,4′-diamino-5(4H)-one-1,2,4-triazinyl)]hydrazide
IC50 [1]: 0.83 mM

COc1cccc(C(=O)C=C2NN=C(N)N(N)C2=O)c1 [3,4-diamino-6-(3′-methoxyphenylcarbonylmethylene)-1,2,4-triazine-5(4H)-one]
IC50 [1]: > 10 mM

CCCCc1nnc(N)n(N)c1=O [3,4-diamino-6-butyl-1,2,4-triazine-5(4H)-one]
IC50 [1]: 1.6 mM

Cl.NNc1nnc(Cc2ccc(O)cc2)c(=O)n1N [4-amino-3-hydrazino-6-(4′-hydroxybenzyl)-1,2,4-triazin-5(4H)-one hydrochloride]
IC50 [1]: > 1 mM
melting point: 218 to 222 °C (dec.)

Cc1nnc(NN)n(N)c1=O [4-amino-3-hydrazino-6-methyl-1,2,4-triazin-5(4H)-one hydrochloride]
IC50 [1]: < 3 mM

N=C(N)NN [aminoguanidine]
Increased glomerular basement membrane thickness [2]: prevented
Aortic wall protein cross-linking (diabetic rats): diminishes aortic wall protein cross-linking
Immunoglobulin trapping in the kidney (kidney): reduction of immunoglobulin trapping in the kidney
Diabetes-induced changes in the deformability of red blood cells (red blood cells): has been shown to prevent it in vivo
